PubChem BioAssay AID1918994 (Molecular Pharmacology Branch, DTP, NCI, 2023)

Tested on: 292921-168-R-J2-PDC complex spheroid growth
Experiment: Anticancer human tumor 292921-168-R-J2-PDC patient-derived pancreatic carcinoma cell line growth inhibition [AhR]
Conditions: for IC50: curve of first compound; for viability, T/C: stronger effect = lower value; active = viability on the fitted dose curve at most 10% of control; inactive = the rest
Method in brief: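 Complex tumor spheroids co-cultured with HUVEC and human MSC stroma; AhR antagonists tested in combination with standard-of-care and investigational agents. Top concentration at or near clinical Cmax (else 10 microM), half-log dilutions; growth expressed as percent test/control.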

[1] = second compound 0.1 µM, first compound 0.0316 µM
[2] = second compound 0.1 µM, first compound 0.1 µM
[3] = second compound 0.316 µM, first compound 0.0316 µM
[4] = second compound 0.316 µM, first compound 0.1 µM
[5] = second compound 1 µM, first compound 0.0316 µM
[6] = second compound 1 µM, first compound 0.1 µM
[7] = second compound 3.16 µM, first compound 0.0316 µM
[8] = second compound 3.16 µM, first compound 0.1 µM
[9] = second compound 10 µM, first compound 0.0316 µM
[10] = second compound 10 µM, first compound 0.1 µM
[11] = second compound 0.1 µM, first compound 0.316 µM
[12] = second compound 0.1 µM, first compound 1 µM
[13] = second compound 0.1 µM, first compound 3.16 µM
[14] = second compound 0.1 µM, first compound 10 µM
[15] = second compound 0.316 µM, first compound 0.316 µM
[16] = second compound 0.316 µM, first compound 1 µM
[17] = second compound 0.316 µM, first compound 3.16 µM
[18] = second compound 0.316 µM, first compound 10 µM
[19] = second compound 1 µM, first compound 0.316 µM
[20] = second compound 1 µM, first compound 1 µM
[21] = second compound 1 µM, first compound 3.16 µM
[22] = second compound 1 µM, first compound 10 µM
[23] = second compound 3.16 µM, first compound 0.316 µM
[24] = second compound 3.16 µM, first compound 1 µM
[25] = second compound 3.16 µM, first compound 3.16 µM
[26] = second compound 3.16 µM, first compound 10 µM
[27] = second compound 10 µM, first compound 0.316 µM
[28] = second compound 10 µM, first compound 1 µM
[29] = second compound 10 µM, first compound 3.16 µM
[30] = second compound 10 µM, first compound 10 µM
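Note: spheroids exposed to compounds for seven days after three days of growth.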

CC[C@@]1(O)C(=O)OCc2c1cc1n(c2=O)Cc2cc3c(CN(C)C)c(O)ccc3nc2-1 + Cc1cncc(-c2nc(NCCc3c[nH]c4ccccc34)c3ncn(C(C)C)c3n2)c1
0.0302 µM: IC50 (second compound 1 µM)
0.0281 µM: IC50 (second compound 0.316 µM)
0.00119 µM: IC50 (second compound 10 µM)
0.021 µM: IC50 (second compound 3.16 µM)
inactive: viability, T/C (second compound 0.1 µM, first compound 0.000316 µM) 90.2% | viability, T/C (second compound 0.1 µM, first compound 0.001 µM) 90.4% | viability, T/C (second compound 0.1 µM, first compound 0.00316 µM) 89.5% | viability, T/C (second compound 0.1 µM, first compound 0.01 µM) 68.1% | viability, T/C [1] 58.9% | viability, T/C [2] 23.3% | viability, T/C (second compound 0.316 µM, first compound 0.000316 µM) 89.1% | viability, T/C (second compound 0.316 µM, first compound 0.001 µM) 92.8% | viability, T/C (second compound 0.316 µM, first compound 0.00316 µM) 87.8% | viability, T/C (second compound 0.316 µM, first compound 0.01 µM) 67.4% | viability, T/C [3] 49.6% | viability, T/C [4] 23.7% | viability, T/C (second compound 1 µM, first compound 0.000316 µM) 91% | viability, T/C (second compound 1 µM, first compound 0.001 µM) 90.6% | viability, T/C (second compound 1 µM, first compound 0.00316 µM) 80.9% | viability, T/C (second compound 1 µM, first compound 0.01 µM) 60.3% | viability, T/C [5] 54% | viability, T/C [6] 24.1% | viability, T/C (second compound 3.16 µM, first compound 0.000316 µM) 69.9% | viability, T/C (second compound 3.16 µM, first compound 0.001 µM) 67.7% | viability, T/C (second compound 3.16 µM, first compound 0.00316 µM) 73.2% | viability, T/C (second compound 3.16 µM, first compound 0.01 µM) 59.4% | viability, T/C [7] 44.2% | viability, T/C [8] 22.2% | viability, T/C (second compound 10 µM, first compound 0.000316 µM) 52.1% | viability, T/C (second compound 10 µM, first compound 0.001 µM) 49.1% | viability, T/C (second compound 10 µM, first compound 0.00316 µM) 50.1% | viability, T/C (second compound 10 µM, first compound 0.01 µM) 37.5% | viability, T/C [9] 33.4% | viability, T/C [10] 24.2%
0.0392 µM: IC50 (second compound 0.1 µM)

CCc1c2c(nc3ccc(O)cc13)-c1cc3c(c(=O)n1C2)COC(=O)[C@]3(O)CC + Cc1cncc(-c2nc(NCCc3c[nH]c4ccccc34)c3ncn(C(C)C)c3n2)c1
inactive: viability, T/C (second compound 0.1 µM, first compound 0.000949 µM) 62.5% | viability, T/C (second compound 0.1 µM, first compound 0.003 µM) 50.5% | viability, T/C (second compound 0.1 µM, first compound 0.00949 µM) 22.7% | viability, T/C (second compound 0.316 µM, first compound 0.000949 µM) 64.3% | viability, T/C (second compound 0.316 µM, first compound 0.003 µM) 50.4% | viability, T/C (second compound 0.316 µM, first compound 0.00949 µM) 23.2% | viability, T/C (second compound 1 µM, first compound 0.000949 µM) 57.6% | viability, T/C (second compound 1 µM, first compound 0.003 µM) 45.8% | viability, T/C (second compound 1 µM, first compound 0.00949 µM) 22.5% | viability, T/C (second compound 1 µM, first compound 0.03 µM) 11.6% | viability, T/C (second compound 3.16 µM, first compound 0.000949 µM) 44.6% | viability, T/C (second compound 3.16 µM, first compound 0.003 µM) 35.2% | viability, T/C (second compound 3.16 µM, first compound 0.00949 µM) 19.6% | viability, T/C (second compound 3.16 µM, first compound 0.03 µM) 11.1% | viability, T/C (second compound 10 µM, first compound 0.000949 µM) 36.7% | viability, T/C (second compound 10 µM, first compound 0.003 µM) 28.9% | viability, T/C (second compound 10 µM, first compound 0.00949 µM) 21.7% | viability, T/C (second compound 10 µM, first compound 0.03 µM) 14.2%
0.00289 µM: IC50 (second compound 0.316 µM)
< 0.000949 µM: IC50 (second compound 3.16 µM) | IC50 (second compound 10 µM)
active: viability, T/C (second compound 0.1 µM, first compound 0.03 µM) 11.1% | viability, T/C (second compound 0.1 µM, first compound 0.0949 µM) 5.94% | viability, T/C (second compound 0.1 µM, first compound 0.3 µM) 3.28% | viability, T/C (second compound 0.316 µM, first compound 0.03 µM) 11.7% | viability, T/C (second compound 0.316 µM, first compound 0.0949 µM) 5.74% | viability, T/C (second compound 0.316 µM, first compound 0.3 µM) 3.22% | viability, T/C (second compound 1 µM, first compound 0.0949 µM) 6.94% | viability, T/C (second compound 1 µM, first compound 0.3 µM) 4.02% | viability, T/C (second compound 3.16 µM, first compound 0.0949 µM) 6.69% | viability, T/C (second compound 3.16 µM, first compound 0.3 µM) 3.97% | viability, T/C (second compound 10 µM, first compound 0.0949 µM) 9.49% | viability, T/C (second compound 10 µM, first compound 0.3 µM) 6.16%
0.00192 µM: IC50 (second compound 1 µM)
0.00291 µM: IC50 (second compound 0.1 µM)

Nc1ccccc1NC(=O)c1ccc(CNC(=O)OCc2cccnc2)cc1 + Cc1cncc(-c2nc(NCCc3c[nH]c4ccccc34)c3ncn(C(C)C)c3n2)c1
0.242 µM: IC50 (second compound 0.316 µM)
0.351 µM: IC50 (second compound 0.1 µM)
0.251 µM: IC50 (second compound 1 µM)
inactive: viability, T/C [1] 75.2% | viability, T/C [2] 63.8% | viability, T/C [11] 48.1% | viability, T/C [12] 40.9% | viability, T/C [13] 27.9% | viability, T/C [14] 13.4% | viability, T/C [3] 68.2% | viability, T/C [4] 57% | viability, T/C [15] 49.7% | viability, T/C [16] 33.6% | viability, T/C [17] 25.7% | viability, T/C [18] 11.5% | viability, T/C [5] 58.4% | viability, T/C [6] 60.7% | viability, T/C [19] 45.7% | viability, T/C [20] 35.9% | viability, T/C [21] 22.9% | viability, T/C [22] 11.9% | viability, T/C [7] 43.5% | viability, T/C [8] 47.4% | viability, T/C [23] 39.3% | viability, T/C [24] 30.5% | viability, T/C [25] 17.2% | viability, T/C [26] 10.9% | viability, T/C [9] 27.8% | viability, T/C [10] 27.9% | viability, T/C [27] 22.6% | viability, T/C [28] 22.4% | viability, T/C [29] 15.4% | viability, T/C [30] 7.52%
< 0.0316 µM: IC50 (second compound 3.16 µM) | IC50 (second compound 10 µM)

Nc1ccn(C2OC(CO)C(O)C2(F)F)c(=O)n1 (stereo not given) + Cc1cncc(-c2nc(NCCc3c[nH]c4ccccc34)c3ncn(C(C)C)c3n2)c1
< 0.0316 µM: IC50 (second compound 0.1 µM) | IC50 (second compound 0.316 µM) | IC50 (second compound 1 µM) | IC50 (second compound 3.16 µM) | IC50 (second compound 10 µM)
inactive: viability, T/C [3] 10.2% | viability, T/C [5] 12% | viability, T/C [7] 13.8% | viability, T/C [8] 12.3% | viability, T/C [23] 10.2% | viability, T/C [24] 11.6% | viability, T/C [25] 11.6% | viability, T/C [26] 8.76% | viability, T/C [9] 29.8% | viability, T/C [10] 21.1% | viability, T/C [27] 19.3% | viability, T/C [28] 15.2% | viability, T/C [29] 15.8% | viability, T/C [30] 13.4%
active: viability, T/C [1] 8.94% | viability, T/C [2] 10.1% | viability, T/C [11] 9.38% | viability, T/C [12] 9.84% | viability, T/C [13] 9.57% | viability, T/C [14] 7.01% | viability, T/C [4] 9.23% | viability, T/C [15] 9.06% | viability, T/C [16] 8.59% | viability, T/C [17] 9.76% | viability, T/C [18] 6.34% | viability, T/C [6] 9.47% | viability, T/C [19] 9.26% | viability, T/C [20] 9.49% | viability, T/C [21] 8.78% | viability, T/C [22] 7.47%

O=C(c1cc(Cc2n[nH]c(=O)c3ccccc23)ccc1F)N1CCN(C(=O)C2CC2)CC1 + Cc1cncc(-c2nc(NCCc3c[nH]c4ccccc34)c3ncn(C(C)C)c3n2)c1
> 10 µM: IC50 (second compound 0.1 µM) | IC50 (second compound 0.316 µM) | IC50 (second compound 1 µM) | IC50 (second compound 3.16 µM)
inactive: viability, T/C [1] 88.1% | viability, T/C [2] 94.8% | viability, T/C [11] 85.6% | viability, T/C [12] 89.7% | viability, T/C [13] 89.8% | viability, T/C [14] 70.3% | viability, T/C [3] 91.6% | viability, T/C [4] 89.3% | viability, T/C [15] 88.8% | viability, T/C [16] 84.7% | viability, T/C [17] 87.9% | viability, T/C [18] 65.6% | viability, T/C [5] 84.2% | viability, T/C [6] 80.6% | viability, T/C [19] 80.6% | viability, T/C [20] 88.2% | viability, T/C [21] 85.5% | viability, T/C [22] 61.5% | viability, T/C [7] 61.6% | viability, T/C [8] 67.3% | viability, T/C [23] 69.2% | viability, T/C [24] 66% | viability, T/C [25] 68.6% | viability, T/C [26] 54.2% | viability, T/C [9] 44% | viability, T/C [10] 47% | viability, T/C [27] 44.9% | viability, T/C [28] 44.5% | viability, T/C [29] 43.4% | viability, T/C [30] 37.2%
< 0.0316 µM: IC50 (second compound 10 µM)
